# Legend:
# [1] = target: NL20 human bronchial epithelial cells expressing human Z-AAT (Homo sapiens (Human), UniProt P01009, E366K); assay: AAT Function Assay (MSD Assay NL20-SI Cell Line); format: cell-based; settings: functionally active AAT (AAT-hNE complex, MSD) in supernatant of NL20 cells expressing human Z-AAT; read-out: NL20 Functional EC50
# In short: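 NL20 bronchial epithelial cells expressing Z-AAT, induced with 0.1 μM doxycycline, were treated with compound overnight. Functional AAT in supernatant was measured by complex formation with excess human neutrophil elastase, captured on anti-AAT plates, detected with Sulfo-tagged anti-elastase on MSD, and quantified against M-AAT standards (0.156–320 ng/mL).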
# [2] = target: purified Z-AAT protein from human plasma (Homo sapiens (Human), UniProt P01009, E366K); assay: Biochemical Assay (Z-AAT Elastase Activity Assay); settings: purified Z-AAT pre-incubated with compound 1 hour, then human neutrophil elastase and fluorescent substrate
# Chain of purified Z-AAT protein from human plasma (P01009 25-418 E366K limits assumed): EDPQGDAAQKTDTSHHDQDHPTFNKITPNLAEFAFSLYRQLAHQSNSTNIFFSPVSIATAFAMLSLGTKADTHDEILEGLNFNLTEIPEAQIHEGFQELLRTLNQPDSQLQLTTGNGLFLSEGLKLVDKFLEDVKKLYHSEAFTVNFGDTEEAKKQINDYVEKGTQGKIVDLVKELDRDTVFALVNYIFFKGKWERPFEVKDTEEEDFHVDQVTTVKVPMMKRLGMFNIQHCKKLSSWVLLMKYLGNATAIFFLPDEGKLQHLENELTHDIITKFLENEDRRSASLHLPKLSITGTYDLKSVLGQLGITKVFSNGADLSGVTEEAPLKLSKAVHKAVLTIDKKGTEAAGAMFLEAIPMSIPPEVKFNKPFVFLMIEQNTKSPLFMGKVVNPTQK
# In short: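 Purified plasma Z-AAT (20 nM) preincubated with compounds 1 h at room temperature, then 3 nM human neutrophil elastase added in PBS + 0.01% BRIJ35 for 30 min to form suicide complex. Residual elastase activity read immediately by fluorescence after adding 300 μM MeOSuc-AAPV-AMC substrate solution.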
# Chain of NL20 human bronchial epithelial cells expressing human Z-AAT (P01009 25-418 E366K limits assumed): as above
smiles,measurement,setting,value
"Cc1cc(-n2c(C3CCOCC3)c([C@H]3CCC[C@@H](CC(=O)O)C3)c3cc(O)ccc32)ccc1F (racemic) [Compound 105, cis-2-(3-(1-(4-fluoro-3-methylphenyl)-5-hydroxy-2-(tetrahydro-2H-pyran-4-yl)-1H-indol-3-yl)cyclohexyl)acetic acid]",EC50,[1],0.5 to 2 µM
same,IC50,[2],> 30 µM
"N#Cc1c(C2CCOCC2)n(-c2ccc(F)cc2)c2ccc(O)cc12 [Compound 194, 1-(4-fluorophenyl)-5-hydroxy-2-(tetrahydro-2H-pyran-4-yl)-1H-indole-3-carbonitrile]",EC50,[1],0.5 to 2 µM
same,IC50,[2],> 30 µM
Cc1cc(-n2c(C3CC3)c(CC(=O)O)c3cc(O)ccc32)ccc1F [Compound 160],EC50,[1],> 2 µM
same,IC50,[2],> 30 µM
"Cc1cc(-n2c(C3CCOCC3)c([C@H]3C[C@@H](c4noc(=O)[nH]4)C3)c3cc(O)ccc32)ccc1F [Compound 224, cis-3-[3-[1-(4-fluoro-3-methyl-phenyl)-5-hydroxy-2-tetrahydropyran-4-yl-indol-3-yl]cyclobutyl]-4H-1,2,4-oxadiazol-5-one]",EC50,[1],> 2 µM
same,IC50,[2],> 30 µM
Cc1cc(-n2c(C(C)C)c(CC3(C(=O)O)CC3)c3cc(O)ccc32)ccc1F [Compound 104],EC50,[1],0.5 to 2 µM
same,IC50,[2],> 5 µM
"CCC(OC)c1c(C#N)c2cc(O)ccc2n1-c1ccc(F)cc1 (racemic) [Compound 190, 1-(4-fluorophenyl)-5-hydroxy-2-(1-methoxypropyl)indole-3-carbonitrile]",EC50,[1],0.5 to 2 µM
same,IC50,[2],> 5 µM
O=C(O)[C@]1(CF)C[C@@H](c2c(C3CCOCC3)n(-c3ccc(F)c(Cl)c3)c3ccc(O)cc32)C1 [Compound 110],EC50,[1],> 2 µM
same,IC50,[2],> 30 µM
"CCCn1c(C(C)C)c(C#N)c2cc(O)ccc21 [Compound 204, 5-hydroxy-2-isopropyl-1-propyl-1H-indole-3-carbonitrile]",EC50,[1],> 2 µM
same,IC50,[2],> 30 µM
O=C(O)[C@H]1C[C@@H](c2c(C3CCOCC3)n(-c3ccc(F)c(Cl)c3)c3ccc(O)cc32)C1 [Compound 115],EC50,[1],> 2 µM
same,IC50,[2],> 30 µM
Cc1cc(-n2c(C(C)C)c([C@H]3C[C@@](C)(C(=O)O)C3)c3cc(O)ccc32)ccc1F [Compound 94],EC50,[1],> 2 µM
same,IC50,[2],> 30 µM
Cc1cc(-n2c(C3CCOCC3)c([C@H]3CC[C@H](C(=O)O)CC3)c3cc(O)ccc32)ccc1F [Compound 56],EC50,[1],0.5 to 2 µM
same,IC50,[2],> 30 µM
Cc1cc(-n2c(C(C)C)c(CCC(C)(C)C(=O)O)c3cc(O)ccc32)ccc1F [Compound 62],EC50,[1],0.5 to 2 µM
same,IC50,[2],> 30 µM
Cc1cc(-n2c(C(C)C)c(CC(C)C(=O)O)c3cc(O)ccc32)ccc1F (stereo not shown) [Compound 26],EC50,[1],> 2 µM
same,IC50,[2],> 30 µM
CCc1c([C@H]2C[C@@H]2C(=O)O)c2cc(O)ccc2n1-c1ccc(F)c(C)c1 [Compound 127],EC50,[1],> 2 µM
same,IC50,[2],> 30 µM
O=C(O)[C@H]1C[C@H](Cc2c(C3CCOCC3)n(-c3ccc(F)cc3)c3ccc(O)cc23)C1 [Compound 36],EC50,[1],> 2 µM
same,IC50,[2],> 30 µM
"Cc1cc(-n2c(C(C)C)c([C@H]3C[C@H](C(=O)NS(C)(=O)=O)C3)c3cc(O)ccc32)ccc1F [Compound 220, trans-3-[1-(4-fluoro-3-methyl-phenyl)-5-hydroxy-2-isopropyl-indol-3-yl]-N-methylsulfonyl-cyclobutanecarboxamide]",EC50,[1],> 2 µM
same,IC50,[2],> 5 µM
CC(C)c1c(CC2(C(=O)O)CC2)c2cc(O)ccc2n1-c1ccc(F)cc1 [Compound 71],EC50,[1],0.5 to 2 µM
same,IC50,[2],> 5 µM
Cc1cc(-n2c(C(C)C)c([C@@H]3COCC3C(=O)O)c3cc(O)ccc32)ccc1F (mixture of isomers) [Compound 82],EC50,[1],> 2 µM
same,IC50,[2],> 30 µM
"Cc1cc(-n2c(C3CCOCC3)c([C@H]3C[C@](C(=O)O)(C(F)F)C3)c3cc(O)ccc32)ccc1F [Compound 123, cis-1-(difluoromethyl)-3-(1-(4-fluoro-3-methylphenyl)-5-hydroxy-2-(tetrahydro-2H-pyran-4-yl)-1H-indol-3-yl)cyclobutane-1-carboxylic acid]",EC50,[1],> 2 µM
same,IC50,[2],> 30 µM
Cc1cc(-n2c([C@@H]3CCOC3)c([C@H]3C[C@H](C(=O)O)C3)c3cc(O)ccc32)ccc1F [Compound 84],EC50,[1],> 2 µM
same,IC50,[2],> 30 µM
CO[C@]1(C(=O)O)C[C@H](c2c(C3CCOCC3)n(-c3ccc(F)c(C)c3)c3ccc(O)cc32)C1 [Compound 15],EC50,[1],> 2 µM
same,IC50,[2],> 30 µM
C[C@]1(C(=O)O)C[C@@H](c2c(C3CCOCC3)n(-c3ccc(F)c(F)c3)c3ccc(O)cc32)C1 [Compound 40],EC50,[1],> 2 µM
same,IC50,[2],> 30 µM
Cc1cc(-n2c(C(C)C)c([C@H]3C[C@H]3C(=O)O)c3cc(O)ccc32)ccc1F [Compound 128],EC50,[1],> 2 µM
same,IC50,[2],> 30 µM
Cc1cc(-n2c(C(C)C)c([C@H]3C[C@H](C(=O)O)C3)c3c(F)c(O)ccc32)ccc1F [Compound 89],EC50,[1],0.5 to 2 µM
same,IC50,[2],2 to 5 µM
Cc1cc(-n2c(C3CCOCC3)c([C@H]3C[C@@](C(=O)O)(C(F)(F)F)C3)c3cc(O)ccc32)ccc1F [Compound 9],EC50,[1],0.5 to 2 µM
same,IC50,[2],> 5 µM
O=C(O)[C@]1(CF)C[C@H](c2c(C3CCOCC3)n(-c3ccc(F)cc3)c3ccc(O)cc32)C1 [Compound 119],EC50,[1],> 2 µM
same,IC50,[2],> 30 µM
CC(C)(C)c1c(C#N)c2cc(O)ccc2n1-c1ccc(F)cc1 [Compound 186],EC50,[1],< 0.5 µM
same,IC50,[2],> 5 µM
Cc1cc(-n2c(C(C)C)c(C3COC(C(=O)O)C3)c3cc(O)ccc32)ccc1F (stereo not shown) [Compound 88],EC50,[1],> 2 µM
same,IC50,[2],> 30 µM
Cc1cc(-n2c(C(C)C)c([C@H]3C[C@@H](C(=O)O)C3)c3cc(O)c(F)cc32)ccc1F [Compound 69],EC50,[1],> 2 µM
same,IC50,[2],> 5 µM
Cc1cc(-n2c(C3COC3)c([C@H]3C[C@@H]3C(=O)O)c3cc(O)ccc32)ccc1F [Compound 131],EC50,[1],> 2 µM
same,IC50,[2],> 30 µM
Cc1cc(-n2c(C(C)C)c(C3CC4(CC(C(=O)O)C4)C3)c3cc(O)ccc32)ccc1F (stereo not shown) [Compound 97],EC50,[1],< 0.5 µM
same,IC50,[2],2 to 5 µM
"COCC(C)(C)c1c(-c2ccc(C(=O)O)cc2)c2cc(O)ccc2n1-c1ccc(F)cc1 [Compound 164, 4-(1-(4-fluorophenyl)-5-hydroxy-2-(1-methoxy-2-methylpropan-2-yl)-1H-indol-3-yl)benzoic acid]",EC50,[1],< 0.5 µM
same,IC50,[2],< 2 µM
Cc1cc(-n2c(C(C)C)c(C3CC(C(=O)O)C3)c3cc(O)ccc32)ccc1F (stereo not shown) [Compound 6],EC50,[1],> 2 µM
same,IC50,[2],> 30 µM
Cc1cc(-n2c(C3CCS(=O)(=O)CC3)c(C[C@H]3CC[C@H](C(=O)O)CC3)c3cc(O)ccc32)ccc1F [Compound 44],EC50,[1],> 2 µM
same,IC50,[2],> 30 µM
"Cc1cc(-n2c(C3CCOCC3)c([C@H]3C[C@H](c4noc(=O)[nH]4)C3)c3cc(O)ccc32)ccc1F [Compound 223, Trans-3-[3-[1-(4-fluoro-3-methyl-phenyl)-5-hydroxy-2-tetrahydropyran-4-yl-indol-3-yl]cyclobutyl]-4H-1,2,4-oxadiazol-5-one]",EC50,[1],0.5 to 2 µM
same,IC50,[2],> 30 µM
Cc1cc(-n2c(C(C)C)c(C3CCOC(C(=O)O)C3)c3cc(O)ccc32)ccc1F (stereo not shown) [Compound 65],EC50,[1],> 2 µM
same,IC50,[2],> 30 µM
"Cc1cc(-n2c(C(C)C)c(C#N)c3cc(O)c(F)cc32)ccc1F [Compound 193, 6-fluoro-1-(4-fluoro-3-methylphenyl)-5-hydroxy-2-isopropyl-1H-indole-3-carbonitrile]",EC50,[1],0.5 to 2 µM
same,IC50,[2],> 30 µM
COCC(C)(C)c1c([C@H]2C[C@H](C(=O)O)C2)c2cc(O)ccc2n1-c1ccc(F)c(C)c1 [Compound 73],EC50,[1],> 2 µM
same,IC50,[2],> 30 µM
"CC(C)(CC#N)c1c(-c2ccc(C(=O)O)cc2)c2cc(O)ccc2n1-c1ccc(F)cc1 [Compound 165, 4-(2-(1-cyano-2-methylpropan-2-yl)-1-(4-fluorophenyl)-5-hydroxy-1H-indol-3-yl)benzoic acid]",EC50,[1],0.5 to 2 µM
same,IC50,[2],< 2 µM
Cc1cc(-n2c(C3CCS(=O)(=O)CC3)c(C3CC4(CC(C(=O)O)C4)C3)c3cc(O)ccc32)ccc1F (stereo not shown) [Compound 47],EC50,[1],> 2 µM
same,IC50,[2],> 30 µM
Cc1cc(-n2c(C3CCOCC3)c(CCC(C)(C)C(=O)O)c3cc(O)ccc32)ccc1F [Compound 14],EC50,[1],0.5 to 2 µM
same,IC50,[2],> 30 µM
CC(C)c1c([C@H]2C[C@@](C)(C(=O)O)C2)c2cc(O)ccc2n1-c1ccc(F)c(Cl)c1 [Compound 76],EC50,[1],> 2 µM
same,IC50,[2],> 30 µM
Cc1cc(-n2c(C3CCOCC3)c(C[C@H]3C[C@@H](C(=O)O)C3)c3cc(O)ccc32)ccc1F [Compound 8],EC50,[1],0.5 to 2 µM
same,IC50,[2],> 30 µM
C[C@]1(C(=O)O)C[C@H](c2c(C3CCOCC3)n(-c3ccc(F)cc3)c3ccc(O)cc32)C1 [Compound 48],EC50,[1],> 2 µM
same,IC50,[2],> 30 µM
"Cc1cc(-n2c(C(C)C)c(C3CC4(C3)CC(F)(C(=O)O)C4)c3cc(O)ccc32)ccc1F (stereo not shown) [Compound 149, 2-fluoro-6-(1-(4-fluoro-3-methylphenyl)-5-hydroxy-2-isopropyl-1H-indol-3-yl)spiro[3.3]heptane-2-carboxylic acid]",EC50,[1],0.5 to 2 µM
same,IC50,[2],2 to 5 µM
Cc1cc(-n2c(C3CCOCC3)c([C@H]3C[C@@H](C(=O)O)C3)c3cc(O)ccc32)ccc1F [Compound 21],EC50,[1],> 2 µM
same,IC50,[2],> 30 µM
Cc1cc(-n2c(C(C)C)c([C@H]3C[C@H](C(=O)O)C3)c3cc(O)c(F)cc32)ccc1F [Compound 68],EC50,[1],0.5 to 2 µM
same,IC50,[2],> 5 µM

# Source: patent US20230339915A1 (Vertex Pharmaceuticals Incorporated, priority 2020, published 2023)
